Source: a melting point compilation (Tetko et al.; mined from patent text by program, amines drawn as free bases though some values may be those of a salt)

Structure (SMILES) | melting point
CCOC(=O)CCCCCOC1OC(COC(C)=O)C(OC(C)=O)C(OC(C)=O)C1NC(C)=O (stereo not drawn) | 101 to 102 °C
O=C(Nc1ccc(NCc2ccccc2)cc1)C(=O)N1CCC(Cc2ccccc2)CC1 | 126 to 128 °C
Cc1nnc2n1-c1ccc(Br)cc1C(c1ccccc1Cl)=CC2 | 250 to 252 °C
O=C(O)C=CCCCCCc1cccc2cncn12 | 110 to 111 °C
O=C(O)CCCNCCC(=O)O | 148 to 151 °C
OC1(C2=NCCCN2)c2ccccc2-c2ccccc21 | 242 to 245 °C
CC1(C)CC2(CC(c3ccc(F)cc3)=C1/C=C/[C@H]1C[C@H](O)CC(=O)O1)OCCO2 (relative stereo) | 142 to 144 °C
CCc1nc2c(cnn2CC)c(NC2CCOCC2)c1CNC(=O)c1cccc(C(=O)NCc2ccc(C)c(-c3cccc(C=O)c3)c2)c1 | 114 to 117 °C
O=C(Nc1cccc(S(=O)(=O)NCc2ccccn2)c1)c1cnn2c(C(F)(F)F)cc(-c3ccc(C(F)(F)F)cc3)nc12 | 229 °C
CN(C)Cc1ccc(COCC(N)=O)s1 | 86.5 to 95 °C
Cc1ccc2c(c1)CCOC2CCN1CCN(c2ccc(S(N)(=O)=O)cc2)CC1 (stereo not drawn) | 221 to 222 °C
O=C(NCc1ccccn1)Nc1cc(N2CC(Cc3ccccc3)OC2=O)ccn1 (stereo not drawn) | 191 to 193 °C
CC(C)(C)OC(=O)CC(Cc1ccccc1)NC(=O)C1Cc2ccccc2N1S(=O)(=O)c1ccc(-c2ccc(F)cc2)cc1 (stereo not drawn) | 67 to 73 °C
CCOC(=O)C1C2C(=O)N(Cc3ccccc3)C(=O)C12 (stereo not drawn) | 190 °C
O=C(O)CSc1nc(-c2ccccc2)ns1 | 97 °C
COC(=O)C1Cc2c(cccc2-c2ccccc2)CN1 (stereo not drawn) | 149 to 150 °C
O=C1C(Br)=CC(Br)(Br)C=C1Br | 123 to 127 °C
O=C(O)C1Cc2c(ncn2CCc2ccccc2)CN1C(=O)Cc1ccccc1 (stereo not drawn) | 215 to 220 °C
CCCCNC(=O)c1c(N)cc(Cl)cc1Cl | 92 to 98 °C
c1cc(-c2csnn2)ccn1 | 121 to 123 °C
O=C(O)CCSCC(=O)c1ccc2[nH]c(=O)[nH]c2c1 | 212 to 215 °C

Structure (SMILES) | melting point
O=c1oc2c(c(O)c1C(C1CC1)C1CC1)CCCCCC2Cc1ccccc1 (stereo not drawn) | 94 to 97 °C
O=C1COc2ccc(CCCCCCc3ccc4c(c3)NC(=O)CO4)cc2N1 | 219 to 225 °C
O=C1N(Cc2ccc(O)cc2)c2ccccc2C12COc1cc3c(cc12)CCO3 (stereo not drawn) | 226 to 227 °C
CC1(C)OC(=O)N2CCNCC21 (stereo not drawn) | 92 to 93 °C
CC12CCC(=O)N1CCCN2C(=O)C(Cl)Cl (stereo not drawn) | 144 to 147 °C
O=C(NS(=O)(=O)c1ccccc1)c1ccc2nc(C3CC3)n(Cc3ccc(-c4ccccc4)cc3)c2c1 | 221 to 225 °C
O=C(O)CC(NC(=O)OCc1ccccc1)C(=O)CNS(=O)(=O)CCc1ccccc1 (stereo not drawn) | 100 to 101 °C
CNC(=N[N+](=O)[O-])N(Cc1ccc(Cl)nc1)C(C)=O | 124 to 125 °C
COc1ccc(CS(=O)(=O)c2ccc(S(N)(=O)=O)s2)cc1 | 198 to 203 °C
O=C1CN(C(=O)CN2CC(c3ccc(F)cc3)CC2=O)CCN1 (stereo not drawn) | 200 to 203 °C
O=c1[nH]c(=O)n(C2CC(OCc3ccccc3)C(COC(c3ccccc3)(c3ccccc3)c3ccccc3)O2)cc1F (stereo not drawn) | 138 to 139 °C
Cc1cccc(C(=O)c2ccccc2F)c1N | 65.5 to 67.5 °C
COc1ccccc1CC(=O)N1C[C@@H]2[C@H](C1)[C@@](O)(c1ccccc1OC)[C@H](O)CC2(c1ccccc1)c1ccccc1 (racemic) | 278 °C
CC(=O)c1ccc(OC(CCCCC(=O)O)c2ccccc2)cc1O (stereo not drawn) | 91 to 93 °C
NCC1(O)c2ccccc2C=Cc2ccccc21 | 117 to 120 °C
CON=C(C(=O)O)C1(CCl)OCCO1 | 80 to 81 °C
O=C1NC(=O)C(Nc2ccc(CCNC[C@H](O)COc3ccc(Oc4ccccc4)cc3)cc2)S1 (stereo partly drawn) | 72 to 74 °C
CCCCOc1nc(NC2=CCC(=C=C3CC4CCC3(C)C4(C)C)C=C2)nc(NC2=CCC(=C=C3CC4CCC3(C)C4(C)C)C=C2)n1 | 181 °C
O=S(CBr)c1ccc2c(c1)OCO2 (stereo not drawn) | 88 to 89 °C
CC(C)OC(=O)NC12CC1CN(Cc1ccccc1)C2 (stereo not drawn) | 88 °C
Cn1ncc(/C=C/C(=O)O)c1-c1ccoc1 | 218 to 219 °C

Results, then the compound that gave them:

melting point | Structure (SMILES)
176 to 178 °C | CCN(C(=O)OC)c1cccc(-c2ccc3nnc(C)n3n2)c1
> 300 °C | COc1cc2cc(-c3ccc(=O)[nH]n3)sc2cc1OC
90 to 110 °C | O=C(O)C(F)c1cc(F)cc(F)c1 (stereo not drawn)
121 °C | CCCNC(=O)c1ccc(CCCc2cc(S(C)(=O)=O)ccc2OCc2ccccc2)cc1
180 to 182 °C | COC(=O)C1=C(C)NC(C)=C(C(=O)OCCBr)C1c1cccc(Cl)c1Cl (stereo not drawn)
77 to 82 °C | CCCn1nc(C(C)C)c(C(=O)O)c1Cc1ccc(-c2ccccc2S(=O)(=O)NC(=O)OCC(C)C)c(F)c1
164 °C | CN1C(=O)N(c2cc(Cl)cc(Cl)c2)C(=O)[C@]12CN(Cc1ccccc1)C[C@H]2c1ccc(C#N)cc1 (relative stereo)
86 to 89 °C | CCNc1ncccc1-c1sccc1-c1cccnc1F
205 to 207 °C | COC(=O)Nc1c(C#N)cnn1-c1ccc(Cl)c(Cl)c1Cl
209 °C | CCOC(=O)c1cn(C)c2nc3c(F)c(N4CCNC(c5ccc(OC)cc5)C4)c(F)cc3cc2c1=O (racemic)
66 to 68.5 °C | COc1cccc(CNC(=O)c2ccc(COC3CCCCO3)cc2)c1 (stereo not drawn)
> 250 °C | CNC(=O)c1ccccc1Nc1nc(Nc2cc3c(cc2OC)CC(=O)NCC3)ncc1Cl
177 to 179 °C | COc1cc2c(C)c(C#N)cnc2cc1F
> 225 °C | COc1ccc(F)cc1C(C)(C)CC(O)(Cn1cc(C)c(=O)c2ccccc21)C(F)(F)F (stereo not drawn)
236 to 238 °C | COc1cc2nc(C)[nH]c(=O)c2cc1OCCCN1CCOCC1
80 to 82 °C | COC1=C(OC)C(=O)C2=C(CCC(CCOc3cccnc3)CC2)C1=O
127 to 130 °C | Cc1cc(-c2ccc(S(C)(=O)=O)cc2)n(-c2ccc(F)cc2)c1
123 to 125 °C | O=C(NCCC1CC1)c1ccnc(N2CCN(Cc3ccc(F)cc3)C2=O)c1
136 to 137 °C | COC1CCN(S(=O)(=O)c2ccc(S(N)(=O)=O)cc2C(F)(F)F)CC1

melting point | Structure (SMILES)
270 to 272 °C | CCOC(=O)c1cnc2nc(C(=O)O)c(OCC)cc2c1O
120 to 122 °C | CC(C)(C)Cc1ccc(Oc2ccc(C(O)c3ccncc3)cc2)cc1 (stereo not drawn)
215 °C | Cn1c(C(F)(F)F)cc(=O)n(-c2ccc3snc(CS(=O)(=O)CC(=O)O)c3c2)c1=O
96 to 97 °C | COc1cccc(CC(=O)O)c1OCCCc1cn(-c2ncc(C(F)(F)F)cc2Cl)nc1C(C)C
52.5 to 54 °C | CCOC(=O)C(Oc1ccc(Cl)cc1)c1ccc(Oc2ccc(Cl)cc2)cc1 (stereo not drawn)
130 to 133 °C | COc1ccccc1OCC(O)CN1CCC(N2CCCNC2=O)CC1 (stereo not drawn)
150 to 153 °C | CCOC(=O)c1cnc(C(=O)O)cn1
209 to 212 °C | O=C(Nc1cc2ncc(CN3CCCC3)cc2cc1F)c1ccc(-c2ccc(C(F)(F)F)cc2)cc1
110 to 112 °C | CCCCc1nc(Cl)c(C(=O)OC)n1Cc1ccc2oc(-c3ccccc3-c3nnn[nH]3)c(Br)c2c1
119 to 120 °C | CC(C#N)(COc1ccc(Cl)cc1)S(=O)(=O)Cc1ccc(Cl)cc1 (stereo not drawn)
74 to 77 °C | O=C(NC1CC1)c1nccnc1Oc1cccc(C(F)(F)F)c1
198 to 199 °C | COc1ccc(-c2nc(C)cc(O)n2)cc1
> 300 °C | Cc1nc(Nc2nc3cccc(C)c3[nH]2)nc(O)c1CC(=O)O
225 to 226 °C | NS(=O)(=O)c1ccc(-c2cc(-c3c[nH]nc3-c3cccc(C4CC4)n3)ccc2F)cc1
130 to 132 °C | CNC(=O)/C(=N/OC)c1ccccc1COc1cccc(SC)n1
> 310 °C | O=S1(=O)N=C(Nc2ccccn2)Nc2ccc(Cl)cc21
102 to 109 °C | CC(=O)Nc1ccc(OCC(O)CNC(C)(C)C)c(C2=NNC(=O)CC2)c1 (stereo not drawn)
150 to 151 °C | NC(=O)C1=C(C(=O)Nc2ccc(Cl)cc2F)CCCC1
88 to 89 °C | CC(C)Oc1ccc(CCCOc2cc(CCC(=O)O)n(C)n2)c(Oc2ncc(C(F)(F)F)cc2Cl)c1

melting point | Structure (SMILES)
224 °C | N#Cc1cc2c(cc1Br)nc1n2CCC1
82 to 85 °C | COC(=O)c1cc(Cl)c(Oc2ccc(OC)cc2)c(Cl)c1
163 to 165 °C | CCN(CC)c1ccc(C(=O)C#Cc2ccnc3ccccc23)cc1
203 to 205 °C | CC(C)(C)c1ccnc(C(=O)c2[nH]c3cc(Cl)ccc3c2CC(=O)O)c1
136 to 138 °C | CC(=O)Nc1nc(C)c(CCC(C)c2ccc(Cl)cc2)c(NC(C)=O)n1 (stereo not drawn)
66 °C | COc1cc(NCCCCCCCl)c2nccc(C)c2c1
203 to 204 °C | Cc1ccnc2[nH]c(C3CC3)nc12
131 to 132 °C | CCOc1cc(OCCCc2cn(-c3ccc(C(F)(F)F)cc3)nc2OCC)ccc1CCC(=O)O
202 to 205 °C | Cc1nc(-n2ccc(OCc3ccccn3)cc2=O)sc1C(=O)NCc1ccccc1
128 to 131 °C | N#Cc1cccc(C(=O)Nc2cccc(C(=O)NCCC(=O)OCc3ccccc3)c2)c1
248 °C | O=C(Nc1cccc2[nH]ccc12)c1cc(O)cc(Cl)c1
160 to 163 °C | COCN1CC(CN)c2c[nH]c3cccc(c23)C1=O (stereo not drawn)
158 to 160 °C | COC(=O)[C@H](CO)NC(=O)c1ncn2c1CN(C)C(=O)c1sccc1-2
286 to 288 °C | Cc1ccc2c(c1)Nc1ncccc1NC2=O
91 to 92 °C | Cc1cnc(S(=O)(=O)c2ccccc2)c(C)c1Cl
88 to 108 °C | Cc1ccc(C(=C(C=CC=O)c2nnnn2C)c2ccc(C)cc2F)c(F)c1
167 to 169 °C | CNC(=O)OC1CC2(CCN(CCCC(=O)c3ccc(F)cc3)C2)c2ccccc21 (stereo not drawn)
192 to 194 °C | COc1c(N2C[C@@H](N)[C@@H](C)C2)c(F)cc2c(=O)c(C(=O)O)cn(C3CC3)c12 (relative stereo)
